Reference: patent US20100184684A1, “ANTIBACTERIAL AND ANTIFUNGAL PEPTIDES” (C3 JIAN, INC., priority 2009, published 2010)
Converted amounts (≈) assume the structure as drawn. Read-outs that look alike come from different tables or passages of the source. Ends that are not written are not given here. Peptide text beside a SMILES is read from it.

Assays:
S. epidermidis = format: cell-based
Protocol: (§1) In certain embodiments the MIC assays are performed as described herein in the Examples. For each organism, the media and growth conditions utilized is detailed in Table 8.
(§2) In certain embodiments the MIC assays are performed as follows: For each organism, the media and growth conditions utilized is detailed in Table 8.

A. niger = format: cell-based, Aspergillus niger
Protocol: as §1, §2

MRSA = format: cell-based, Staphylococcus aureus; conditions: MRSA; BHI supplemented with 2% glucose, 37° C., aerobic, 10^5 CFU/ml
Protocol: as §1, §2

P. aeruginosa = format: cell-based, Pseudomonas aeruginosa; conditions: P. aeruginosa; MH, 37° C., aerobic, 10^5 CFU/ml
Protocol: as §1, §2

T. rubrum = format: cell-based, Trichophyton rubrum
Protocol: as §1, §2

B. subtilis = format: cell-based, Bacillus subtilis
Protocol: as §1, §2

A. baumannii = format: cell-based, Acinetobacter baumannii; conditions: A. baumannii; LB, 30° C., anaerobic, 10^5 CFU/ml
Protocol: as §1, §2

C. albicans = format: cell-based, Candida albicans
Protocol: as §1, §2

C. difficile = format: cell-based, Clostridium difficile
Protocol: as §1, §2

A. naeslundii = format: cell-based, Actinomyces naeslundii
Protocol: as §1, §2

P. gingivalis = format: cell-based, Porphyromonas gingivalis
Protocol: as §1, §2

S. mutans = format: cell-based, Streptococcus mutans
Protocol: as §1, §2

E. coli = format: cell-based, Escherichia coli
Protocol: as §1, §2

S. pneumoniae = format: cell-based, Streptococcus pneumoniae
Protocol: as §1, §2

**Q.** Which MIC (S. epidermidis; S. epidermidis, BHI supplemented with 0.25% glucose, 37° C., aerobic, 10^5 CFU/ml) does the source give for `CC[C@H](C)[C@H](NC(=O)[C@H](CCCNC(=N)N)NC(=O)[C@@H](NC(=O)[C@H](CCCCN)NC(=O)[C@H](CCCCN)NC(=O)[C@H](CC(C)C)NC(=O)[C@H](CC(C)C)NC(=O)[C@H](CCCCN)NC(=O)[C@H](CCCNC(=N)N)NC(=O)[C@H](Cc1c[nH]cn1)NC(=O)[C@H](CCCCN)NC(=O)[C@H](CCCCN)NC(=O)[C@H](CCCCN)NC(=O)[C@H](C)NC(=O)[C@H](CCSC)NC(=O)[C@H](CCCNC(=N)N)NC(=O)[C@H](CCCCN)NC(=O)[C@H](CCCNC(=N)N)NC(=O)[C@H](CCCNC(=N)N)NC(=O)[C@H](CCCCN)NC(=O)[C@H](CCCCN)NC(=O)[C@@H](NC(=O)[C@@H](NC(=O)[C@H](CO)NC(=O)CN)C(C)C)[C@@H](C)CC)[C@@H](C)O)C(=O)N[C@@H](CCC(N)=O)C(=O)N[C@@H](CCCNC(=N)N)C(=O)N[C@@H](CCCNC(=N)N)C(=O)N[C@@H](CCCNC(=N)N)C(=O)N[C@@H](C)C(=O)NCC(=O)N[C@@H](CCCCN)C(=O)O` [PF-527] (H-GSVIKKRRKRMAKKKHRKLLKKTRIQRRRAGK-OH; N-terminus and C-terminus assumed) here?
**A.** 25 µM (≈ 98.5 µg/mL)

**Q.** What about the MIC (A. niger; A. niger, Potato Dextrose Agar, 25° C., aerobic, 10^5 CFU/ml) of the same compound?
**A.** 50 µM (≈ 197 µg/mL)

**Q.** And the MIC (MRSA)?
**A.** 50 µM (≈ 197 µg/mL)

**Q.** What about the MIC (P. aeruginosa) of the same compound?
**A.** 50 µM (≈ 197 µg/mL)

**Q.** And the MIC (T. rubrum; T. rubrum, Potato Dextrose Agar, 25° C., aerobic, 10^5 CFU/ml)?
**A.** 25 µM (≈ 98.5 µg/mL)

**Q.** What does the source list for `CC[C@H](C)[C@H](NC(=O)[C@H](CO)NC(=O)[C@H](CC(N)=O)NC(=O)[C@H](CCCNC(=N)N)NC(=O)[C@H](CC(N)=O)NC(=O)[C@H](CC(C)C)NC(=O)[C@H](CCCCN)NC(=O)[C@H](CCCCN)NC(=O)[C@H](CCCCN)NC(=O)[C@@H](NC(=O)[C@@H]1CCCN1C(=O)[C@H](CO)NC(=O)[C@H](CCCNC(=N)N)NC(=O)[C@@H](NC(=O)[C@H](CCCNC(=N)N)NC(=O)[C@@H](NC(=O)[C@@H](N)CCSC)[C@@H](C)CC)[C@@H](C)CC)[C@@H](C)O)C(=O)N[C@@H](CO)C(=O)N[C@@H](CC(=O)O)C(=O)N[C@@H](Cc1c[nH]c2ccccc12)C(=O)N[C@@H](CCCCN)C(=O)N[C@@H](CO)C(=O)N[C@@H](CC(N)=O)C(=O)N[C@H](C(=O)N[C@@H](CO)C(=O)NCC(=O)N[C@@H](CCCNC(=N)N)C(=O)N[C@@H](Cc1ccccc1)C(=O)N[C@@H](Cc1ccccc1)C(=O)N[C@@H](Cc1ccc(O)cc1)C(=O)O)[C@@H](C)O` [PF-283] (H-MIRIRSPTKKKLNRNSISDWKSNTSGRFFY-OH; N-terminus and C-terminus assumed)?
**A.** MIC (S. epidermidis): 50 µM (≈ 182 µg/mL); MIC (B. subtilis): 50 µM (≈ 182 µg/mL); MIC (T. rubrum): 50 µM (≈ 182 µg/mL)

**Q.** `CC[C@H](C)[C@H](NC(=O)CNC(=O)[C@@H](N)CCSC)C(=O)N[C@H](C(=O)N[C@@H](C)C(=O)NCC(=O)N[C@H](C(=O)N[C@H](C(=O)N[C@@H](CCCCN)C(=O)N[C@@H](Cc1ccccc1)C(=O)N[C@H](C(=O)N[C@@H](CCCCN)C(=O)NCC(=O)N[C@@H](CC(C)C)C(=O)N[C@H](C(=O)N[C@@H](CCC(=O)O)C(=O)N[C@@H](CCCCN)C(=O)N[C@@H](Cc1ccccc1)C(=O)N[C@H](C(=O)NCC(=O)N[C@@H](CCCCN)C(=O)O)[C@@H](C)O)[C@@H](C)CC)[C@@H](C)CC)[C@@H](C)CC)[C@@H](C)CC)[C@@H](C)CC` [PF-006] was tested. Which MIC (A. baumannii) did it give?
**A.** 50 µM (≈ 114 µg/mL)

**Q.** What about the MIC (B. subtilis; B. subtilis, BHI, 30° C., aerobic, 10^5 CFU/ml) of the same compound?
**A.** 25 µM (≈ 56.9 µg/mL)

**Q.** What about the MIC (MRSA) of the same compound?
**A.** 50 µM (≈ 114 µg/mL)

**Q.** Which results are given for `CC[C@H](C)[C@H](NC(=O)[C@H](CCCCN)NC(=O)[C@H](C)NC(=O)[C@H](Cc1ccccc1)NC(=O)[C@@H](NC(=O)[C@H](C)NC(=O)[C@H](CC(C)C)NC(=O)[C@H](CO)NC(=O)[C@@H](N)CC(C)C)[C@@H](C)O)C(=O)N[C@@H](Cc1ccccc1)C(=O)N[C@@H](CCSC)C(=O)N[C@H](C(=O)N[C@@H](CCCNC(=N)N)C(=O)N[C@@H](CO)C(=O)N[C@@H](CC(N)=O)C(=O)N[C@@H](Cc1c[nH]c2ccccc12)C(=O)N[C@@H](CO)C(=O)N[C@@H](CC(C)C)C(=O)N[C@@H](CCCCN)C(=O)N[C@@H](CCCNC(=N)N)C(=O)N[C@@H](Cc1ccccc1)C(=O)N[C@@H](CC(N)=O)C(=O)N[C@@H](CCCNC(=N)N)C(=O)N[C@@H](CC(C)C)C(=O)O)[C@@H](C)O` [PF-278] (H-LSLATFAKIFMTRSNWSLKRFNRL-OH; N-terminus and C-terminus assumed)?
**A.** MIC (C. albicans): 50 µM; MIC (S. epidermidis): 50 µM; MIC (T. rubrum): 50 µM

**Q.** How did the MIC (C. difficile) turn out when `CC[C@H](C)[C@H](NC(=O)[C@H](CCCCN)NC(=O)CNC(=O)[C@H](CC(C)C)NC(=O)[C@H](CC(N)=O)NC(=O)[C@@H](NC(=O)[C@H](CCC(=O)O)NC(=O)[C@H](CC(C)C)NC(=O)[C@H](Cc1c[nH]c2ccccc12)NC(=O)[C@H](CC(=O)O)NC(=O)[C@@H](NC(=O)[C@H](CC(C)C)NC(=O)[C@H](CCC(=O)O)NC(=O)[C@@H](N)Cc1ccccc1)C(C)C)[C@@H](C)O)C(=O)N[C@@H](CC(C)C)C(=O)N[C@@H](CCCCN)C(=O)N[C@@H](CO)C(=O)N[C@@H](CCCCN)C(=O)N[C@@H](CO)C(=O)N[C@@H](C)C(=O)O` [PF-522] (H-FELVDWLETNLGKILKSKSA-OH; N-terminus and C-terminus assumed) was run?
**A.** 25 µM (≈ 57.3 µg/mL)

**Q.** For `CC(C)[C@H](NC(=O)[C@@H](N)Cc1ccc(O)cc1)C(=O)N[C@@H](CC(N)=O)C(=O)N[C@@H](Cc1ccc(O)cc1)C(=O)N[C@@H](CC(N)=O)C(=O)N[C@@H](CCC(N)=O)C(=O)N[C@@H](CO)C(=O)N[C@@H](Cc1ccccc1)C(=O)N[C@@H](CC(N)=O)C(=O)N[C@@H](CO)C(=O)NCC(=O)N[C@@H](Cc1c[nH]c2ccccc12)C(=O)O` [PF-C220] (H-YVNYNQSFNSGW-OH; N-terminus and C-terminus assumed), which MIC (C. albicans) is on record?
**A.** 50 µM (≈ 73.9 µg/mL)

**Q.** What does the source list for “MPVSKKRYMLSSAYATALGICYGQVATDEKESEITAIPDLLDYLSVEEYLL [PF-C163]”?
**A.** MIC (S. epidermidis): 50 µM; MIC (A. naeslundii): 50 µM; MIC (P. gingivalis): 50 µM

**Q.** With `CC(C)[C@H](NC(=O)[C@H](CCCCN)NC(=O)[C@H](Cc1c[nH]c2ccccc12)NC(=O)CNC(=O)[C@@H](NC(=O)[C@H](CC(=O)O)NC(=O)[C@H](CO)NC(=O)[C@H](Cc1c[nH]cn1)NC(=O)CNC(=O)[C@@H]1CCCN1C(=O)[C@@H](NC(=O)[C@H](CCCNC(=N)N)NC(=O)[C@H](CO)NC(=O)[C@@H](N)Cc1c[nH]c2ccccc12)C(C)C)[C@@H](C)O)C(=O)N[C@@H](Cc1c[nH]c2ccccc12)C(=O)N[C@@H](Cc1c[nH]cn1)C(=O)N[C@@H](CCCNC(=N)N)C(=O)N[C@@H](Cc1c[nH]c2ccccc12)C(=O)O` [PF-547] (H-WSRVPGHSDTGWKVWHRW-OH; N-terminus and C-terminus assumed) as the compound, how does the MIC (B. subtilis) read?
**A.** 25 µM (≈ 56.9 µg/mL)

**Q.** And the MIC (S. mutans)?
**A.** 12.5 µM (≈ 28.5 µg/mL)

**Q.** What about the MIC (T. rubrum) of the same compound?
**A.** 25 µM (≈ 56.9 µg/mL)

**Q.** How did the MIC (E. coli) turn out when “TKKIELKRFVDAFVKKSYENYILERELKKLIKAINEELPTK [PF-600]” was run?
**A.** 50 µM

**Q.** What about the MIC (S. pneumoniae) of the same compound?
**A.** 50 µM

**Q.** Which MIC (A. niger) does the source give for `CC[C@H](C)[C@H](NC(=O)[C@H](CCCNC(=N)N)NC(=O)[C@@H]1CCCN1C(=O)[C@H](CCC(=O)O)NC(=O)[C@H](CC(C)C)NC(=O)[C@@H]1CCCN1C(=O)[C@H](CC(=O)O)NC(=O)[C@@H](N)CC(C)C)C(=O)N[C@@H](C)C(=O)N1CCC[C@H]1C(=O)N1CCC[C@H]1C(=O)NCC(=O)N[C@@H](CC(=O)O)C(=O)N[C@@H](CCCNC(=N)N)C(=O)N[C@@H](CO)C(=O)N[C@@H](Cc1c[nH]cn1)C(=O)N[C@@H](CCC(N)=O)C(=O)NCC(=O)N[C@@H](C)C(=O)N1CCC[C@H]1C(=O)N[C@@H](C)C(=O)N[C@@H](CS)C(=O)N[C@@H](Cc1c[nH]cn1)C(=O)N[C@@H](CCCNC(=N)N)C(=O)N[C@@H](CC(=O)O)C(=O)N1CCC[C@H]1C(=O)N[C@@H](CC(C)C)C(=O)N[C@@H](CCCNC(=N)N)C(=O)NCC(=O)N[C@@H](CCCNC(=N)N)C(=O)N[C@@H](CO)C(=O)N[C@@H](C)C(=O)N[C@@H](CCCNC(=N)N)C(=O)N[C@@H](CC(=O)O)C(=O)N[C@@H](C)C(=O)N[C@@H](CCC(=O)O)C(=O)N[C@@H](CCCNC(=N)N)C(=O)O` [PF-C019] (H-LDPLEPRIAPPGDRSHQGAPACHRDPLRGRSARDAER-OH; N-terminus and C-terminus assumed) here?
**A.** 50 µM (≈ 204 µg/mL)

**Q.** And the MIC (S. mutans)?
**A.** 25 µM (≈ 102 µg/mL)

**Q.** What about the MIC (T. rubrum) of the same compound?
**A.** 50 µM (≈ 204 µg/mL)
